The source of these data is ChEMBL document CHEMBL4765400, “Open and rearranged norbornane derived polycyclic cage molecules as potential neuroprotective agents through attenuation of MPP- and calcium overload-induced excitotoxicity in neuroblastoma SH-SY5Y cells” (Eur J Med Chem, 2020).

Molecules are shown by their SMILES. Activity calls are given as the source filed them. The rule behind the calls is not given here.

The nature of data set [1]: Antagonist activity at NMDA receptor (unknown origin). Details: species or system Homo sapiens.
The subject of data set [2] is SH-SY5Y. In words: Blockade of VGCC in human SH-SY5Y cells assessed as inhibition of membrane depolarisation-induced calcium influx at 10 uM by Fura-2AM dye based fluorescence analysis relative to control. In kind it is cell-based.
Data set [3] in a line: Displacement of [3H]MK801 from NMDA receptor in Sprague-Dawley rat cerebral cortical membrane incubated for 60 mins by liquid scintillation counting analysis. In kind it is cell membranes, Cerebral cortex. (Displacement assays read how much labelled ligand stays bound in the presence of the test substance.)
Data set [4] relates to SH-SY5Y. In words: Antagonist activity at NMDA receptor in human SH-SY5Y cells assessed as inhibition of calcium influx at 10 uM by Fura-2AM dye based fluorescence analysis relative to control. In kind it is cell-based.
The subject of data set [5] is SH-SY5Y. Kind of data set: Neuroprotective activity against MPP+-induced neurotoxicity in human SH-SY5Y cells assessed as cell viability at 10 uM pretreated for 2 hrs followed by MPP+ challenge and measured after 24 hrs by MTT assay relative to control. Format: functional. Particulars: time 26 hrs, read-out: Activity. (In general: Tetrazolium assays rely on reduction of a dye to a coloured formazan, in cell work by metabolically active cells.)

In data set [6] the test system is SH-SY5Y. In words: Cytotoxicity against human SH-SY5Y cells assessed as reduction in cell viability at 10 to 100 uM incubated for 24 hrs by MTT assay. In kind it is cell-based. Particulars: dose 10-100 µM.
Data set [7] is described as follows: Cytotoxicity against human SH-SY5Y cells assessed as cell viability at 10 uM incubated for 24 hrs by MTT assay relative to control. In kind it is cell-based. Particulars: read-out: Activity.
Data set [8] is described as follows: Displacement of [3H]MK801 from NMDA receptor (unknown origin) by radioligand binding assay. Details: species or system Homo sapiens.
Data set [9] in a line: Displacement of [3H]MK801 from NMDA receptor in human brain by radioligand binding assay. In kind it is tissue-based.
Data set [10] in a line: Cytotoxicity against human SH-SY5Y cells assessed as cell viability at 100 uM incubated for 24 hrs by MTT assay relative to control. In kind it is cell-based. Particulars: read-out: Activity.

As a reminder, the Ki is the dissociation constant of the complex between target and ligand, obtained from inhibition or displacement. Low readings indicate a stronger hold on the target, high ones a looser hold on the target. With `NC12CC3CC(CC(C3)C1)C2` [AMANTADINE], the affinity in data set [1], expressed as Ki, was 10000 nM.

The inhibition is the share of the control response that was lost under treatment. Take `C[C@@]12N[C@@H](Cc3ccccc31)c1ccccc12`: the inhibition entry in [2] is “inactive”. The compound further gave a Ki in data set [3] of 37.2 nM. Besides, in data set [4] (filed as antagonist), the inhibition stood at 47.5%.

Take `O=C1C=CC(=O)[C@H]2[C@@H]1[C@H]1C=C[C@H]2C1`: the viability at 10 µM in [5] worked out at 32.8%. The inhibition in [2] stood at 15%; in data set [4] (filed as antagonist) it was 43.8%. Moreover, in [6], the Activity result is listed as “Toxic”. In addition, the viability at 24 h, 10 µM in data set [7] was 97.7%.

`O=C1CC[C@H]2C[C@@H]1CCC2=O`: the viability at 10 µM in [5] worked out at 26.1%. For the same compound, in data set [2], the inhibition result is “inactive”. Further, in [6], the Activity result is recorded as “Non-Toxic”. For the same compound, the viability at 24 h, 10 µM in [7] was 125%. Also, the inhibition in data set [4] (filed as antagonist) amounted to 73%.

Regarding `O=C1CC[C@H](O)C2C3C=C[C@@H](C3)C12` (single isomer, unassigned), the viability at 10 µM in [5] worked out at 35%. Besides, the inhibition in data set [2] was found to be 32.8%; in data set [4] (filed as antagonist) it was 69.7%. Besides, in data set [6], the Activity entry was “Non-Toxic”. Also, the viability at 24 h, 10 µM in data set [7] came out at 96.3%.

Turning to `CN[C@@]1(c2ccccc2Cl)CCCCC1=O`, in data set [8], the affinity, expressed as Ki, was 659 nM.

In data set [9], `CC12CC3CC(C)(C1)CC(N)(C3)C2` [MEMANTINE] returned a Ki of 540 nM.

In the case of `COCCOC(=O)C1=C(C)NC(C)=C(C(=O)OC(C)C)C1c1cccc([N+](=O)[O-])c1` (stereo not given), in [2], the inhibition was found to be 34.1%. Besides, the inhibition result in data set [4] was “inactive”.

As for `O=C1C2C3C=CC(C3)C2C(=O)C2C3C=CC(C3)C12` (stereo not given), the viability at 10 µM in data set [5] came to 41.4%. Moreover, the inhibition in data set [2] stood at 50.3%; in [4] (filed as antagonist), 62.3%. For the same compound, in data set [6], the Activity result is recorded as “Non-Toxic”. For the same compound, the viability at 24 h, 10 µM in data set [7] is 95.9%.

`O=C1CCC(=O)[C@H]2[C@@H]1[C@H]1C=C[C@H]2C1`: the viability at 10 µM in [5] worked out at 40.6%. Also, the inhibition worked out at 25.4% in data set [2] and 51% in data set [4] (filed as antagonist). In addition, the Activity result in [6] is “Toxic”. Further, in [7], the viability at 24 h, 10 µM came out at 96.6%.

In the case of `O[C@@H]1C[C@H]2CC[C@@H]1NC2`, the viability at 10 µM in data set [5] was found to be 28.3%. Also, in data set [2], the inhibition result is “inactive”. Further, the Activity entry in data set [6] is “Toxic”. The viability at 24 h, 100 µM in data set [10] came out at 59%. Also, the viability at 24 h, 10 µM in data set [7] turned out to be 96.3%. For the same compound, the inhibition in [4] (filed as antagonist) stood at 43.5%.

On to `O=C1C=C[C@H](NCc2ccccc2)[C@@H]2[C@H]1[C@H]1C=C[C@@H]2C1`, for which the viability at 10 µM in data set [5] turned out to be 33.7%. Besides, the inhibition in [2] stood at 21.3%; in data set [4] it was 26.5%. In addition, the Activity result in [6] was “Toxic”. Moreover, the viability at 24 h, 10 µM in data set [7] stood at 108%.

Consider `C1C2OC2[C@H]2[C@@H]1[C@H]1C[C@@H]2C2OC21` (stereo not given in full), for which, in [5], the viability at 10 µM came to 27.9%. The inhibition in data set [2] was 8.49%; in data set [4] (filed as antagonist), 53.3%. Further, the Activity result in data set [6] was “Toxic”. Also, the viability at 24 h, 10 µM in [7] was found to be 94.4%.

Consider `O=C1C=C[C@H](NN2CCCCC2)[C@@H]2[C@H]1[C@H]1C=C[C@@H]2C1`, for which the viability at 10 µM in [5] is 33.9%. Further, the values for the inhibition in data set [2] and in data set [4] (filed as antagonist) were 8.4% and 65.3%, respectively. For the same compound, in data set [6], the Activity entry is on record as “Non-Toxic”. Also, in data set [7], the viability at 24 h, 10 µM was 93.7%.

As to `C1=C[C@H]2CC[C@@H]1[C@H]1CNC[C@H]12`, the viability at 10 µM in [5] was 27.5%. The figures for the inhibition in [2] and in data set [4] (filed as antagonist) were 5.79% and 55.5%, respectively. The Activity entry in data set [6] was “Non-Toxic”. The viability at 24 h, 10 µM in data set [7] came out at 108%.

In the case of `c1ccc(C2(N3CCCCC3)CCCCC2)cc1` [PHENCYCLIDINE], the Ki in data set [8] was 59 nM.
